experiment: Tested for anti-platelet activity by turbidimetric method using thrombin as agonist in washed platelet; format: functional

IC50 [µM] | SMILES
25 | COC(=O)/C(=C/c1cc(O)nnc1-c1ccccc1)C(C)=O
1550 | Clc1ccccc1CN1CCc2sccc2C1 [TICLOPIDINE]

More lines, now with the values behind:

SMILES | IC50 [µM]
CCOC(=O)C(=Cc1cc(=O)[nH]nc1-c1ccccc1)C(=O)OCC | 20
COC(=O)C(=Cc1cc(=O)[nH]nc1-c1ccccc1)C(=O)OC | 45
O=C1C(CC[S+]([O-])c2ccccc2)C(=O)N(c2ccccc2)N1c1ccccc1 (stereo not given) [SULFINPYRAZONE] | 696

From ChEMBL document CHEMBL1135140, “Pyridazines. Part 28: 5-alkylidene-6-phenyl-3(2H)-pyridazinones, a new family of platelet aggregation inhibitors” (Bioorg Med Chem Lett, 2002)
